What was measured:
Format in all cases: cell-based, human
[1] = test system: A549; assay: SRB colorimetric cytotoxicity assay, A549; settings: Homo sapiens, A549, 72 h, 72 hours treatment, lung carcinoma (NSCLC)
From the text: (§1) The aim of this assay is to evaluate the in vitro cytostatic (ability to delay or arrest tumor cell growth) or cytotoxic (ability to kill tumor cells) activity of the samples being tested.
(§2) A colorimetric assay, using sulforhodamine B (SRB) reaction has been adapted to provide a quantitative measurement of cell growth and viability (following the technique described by V. Vichai and K. Kirtikara (2006) Nature Protoc. 1, 1112-1116.)
(§3) This form of assay employs 96-well cell culture microplates. All the cell lines used in this study were obtained from the American Type Culture Collection (ATCC), unless otherwise indicated, and derive from different types of human cancer.
(§4) Cells were maintained in Dulbecco's Modified Eagle Medium (DMEM) (for A549, HT-29 and MDA-MB-231) or RPMI (for PSN-1) supplemented with 10% Fetal Bovine Serum (FBS), 2 mM L-glutamine, 100 U/mL penicillin and 100 U/mL streptomycin at 37° C., 5% CO2 and 98% humidity. For the experiments, cells were harvested from subconfluent cultures using trypsinization and resuspended in fresh medium before counting and plating.
(§5) Cells were seeded in 96 well microtiter plates, at 5×10^3 cells per well in aliquots of 150 μL, and allowed to attach to the plate surface for 18 hours (overnight) in drug free medium. After that, one control (untreated) plate of each cell line was fixed (as described below) and used for time zero reference value. […] After 72 hours treatment, the antitumor effect was measured by using the SRB methodology: Briefly, cells were washed twice with PBS, fixed for 15 min in 1% glutaraldehyde solution at room temperature, rinsed twice in PBS, and stained in 0.4% SRB solution for 30 min at room temperature. Cells were then rinsed several times with 1% acetic acid solution and air-dried at room temperature. SRB was then extracted in 10 mM trizma base solution and the absorbance measured in an automated spectrophotometric plate reader at 490 nm. Effects on cell growth and survival were estimated by applying the NCI algorithm (Boyd M R and Pauli K D. Drug Dev Res. 1995, 34, 91-104).
(§6) Using the mean±SD of triplicates, a dose-response curve was automatically generated using nonlinear regression analysis to a 4-parameter logistic curve. Three reference parameters were calculated (NCI algorithm) by automatic interpolation: GI50=compound concentration that produces 50% cell growth inhibition, as compared to control cultures; TGI=total cell growth inhibition (cytostatic effect), as compared to control cultures, and LC50=compound concentration that produces 50% net cell killing (cytotoxic effect).

[2] = test system: HT29; assay: SRB colorimetric cytotoxicity assay, HT29; settings: Homo sapiens, HT-29, 72 h, 72 hours treatment, colorectal adenocarcinoma
From the text: as §1, §2, §3, §4, §5, §6

[3] = test system: MDA-MB-231; assay: SRB colorimetric cytotoxicity assay, MDA-MB-231; settings: Homo sapiens, MDA-MB-231, 72 h, 72 hours treatment, breast adenocarcinoma
From the text: as §1, §2, §3, §4, §5, §6

[4] = test system: PSN-1; assay: SRB colorimetric cytotoxicity assay, PSN-1; settings: Homo sapiens, PSN1, 72 h, 72 hours treatment, pancreatic adenocarcinoma
From the text: as §1, §2, §3, §4, §5, §6

Row | SMILES | GI50 [1] | GI50 [2] | GI50 [3] | GI50 [4]
1 | CCC[C@@H](NC(=O)[C@]1(C)CSC(/C(C)=N/CCCNC(=O)OC(C)(C)C)=N1)c1cc(OCC2CC2)cc(=O)o1 [Compound 116] | 0.302 µM | 0.249 µM | 0.195 µM | 0.302 µM
2 | C#CCOc1cc([C@@H](CCC)NC(=O)[C@]2(C)CSC(/C(C)=N/O)=N2)oc(=O)c1 [Compound 75] | 0.00101 µM | 0.000962 µM | 0.00138 µM | 0.00118 µM
3 | C=CCOc1cc([C@@H](CCC)NC(=O)[C@]2(C)CSC(/C(C)=N/OC(=O)CCCCCNC(=O)OC(C)(C)C)=N2)oc(=O)c1 [Compound 165] | 0.00548 µM | 0.00532 µM | 0.00741 µM | 0.00644 µM
4 | CCC[C@@H](NC(=O)[C@]1(C)CSC(/C(C)=N/O)=N1)c1cc(O)cc(=O)o1 [Compound 88] | 20.4 µM | 11.4 µM | 21.8 µM | 18.8 µM
5 | CCC[C@@H](NC(=O)[C@@]1(C)CSC(C(C)(OCC)OCC)=N1)c1cc(OCC2CC2)cc(=O)o1 [Compound 131] | 0.208 µM | 0.196 µM | 0.333 µM | 0.312 µM
6 | CCCCCCCOc1cc([C@@H](CCC)NC(=O)[C@]2(C)CSC(C(C)=O)=N2)oc(=O)c1 [Compound 61] | 1.84 µM | 1.4 µM | 1.44 µM | 1.73 µM
7 | C=CCO/N=C(\C)C1=N[C@](C)(C(=O)N[C@H](CCC)c2cc(OC)cc(=O)o2)CS1 [Compound 93] | 0.0214 µM | 0.0235 µM | 0.038 µM | 0.0285 µM
8 | CCC[C@@H](NC(=O)[C@]1(C)CSC(/C(C)=N/O)=N1)c1cc(N(CC)CC)cc(=O)o1 [Compound 77] | 2.15 µM | 1.18 µM | 1.96 µM | 2.37 µM
9 | CCC[C@@H](NC(=O)[C@@H]1CSC(/C(C)=N/O)=N1)c1cc(OC)cc(=O)o1 [Compound 92] | 1.55 µM | 1.28 µM | 0.953 µM | 0.953 µM
10 | CCC[C@@H](NC(=O)[C@]1(C)CSC(/C(C)=N/OCCCCO)=N1)c1cc(OCC2CC2)cc(=O)o1 [Compound 149] | 0.00669 µM | 0.00628 µM | 0.00891 µM | 0.0136 µM
11 | C=CCOc1cc([C@@H](CCC)NC(=O)[C@]2(C)CSC(/C(C)=N/OCCCCO)=N2)oc(=O)c1 [Compound 115] | 0.0111 µM | 0.00584 µM | 0.0119 µM | 0.0136 µM
12 | CCCCCCCCCCCCCCCCCOc1cc([C@@H](CCC)NC(=O)[C@]2(C)CSC(/C(C)=N/O)=N2)oc(=O)c1 [Compound 73] | 0.38 µM | 0.396 µM | 0.33 µM | 0.347 µM
13 | C=CCOc1cc([C@@H](CCC)NC(=O)[C@]2(C)CSC(C(C)(OCC)OCC)=N2)oc(=O)c1 [Compound 50] | 0.643 µM | 0.514 µM | 0.536 µM | 0.814 µM
14 | CCC[C@@H](NC(=O)[C@@]1(C)CSC(/C(C)=N/O)=N1)c1cc(OC)cc(=O)o1 [Compound 135] | 2.46 µM | 1.26 µM | 2.33 µM | 1.26 µM
15 | C=CCOc1cc([C@@H](CCC)NC(=O)[C@]2(C)CSC(/C(C)=N/O[C@H]3O[C@H](CO)[C@@H](O)[C@@H]4OC(C)(C)O[C@H]34)=N2)oc(=O)c1 [Compound 111] | 0.0262 µM | 0.0246 µM | 0.0295 µM | 0.0377 µM
16 | C=CCOc1cc([C@@H](CCC)NC(=O)[C@@]2(C)CSC(/C(C)=N/O)=N2)oc(=O)c1 [Compound 136] | 0.0712 µM | 0.0859 µM | 0.0785 µM | 0.081 µM
17 | CCC[C@@H](NC(=O)[C@]1(C)CSC(/C(C)=N\O)=N1)c1cc(OC)cc(=O)o1 [Compound 1a] | 0.144 µM | 0.152 µM | 0.204 µM | 0.341 µM
18 | CCC[C@@H](NC(=O)[C@@H]1CSC(C(C)=O)=N1)c1cc(OCC2CC2)cc(=O)o1 [Compound 177] | 2.27 µM | 1.55 µM | 1.61 µM | > 25.5 µM
19 | C#CCOc1cc([C@@H](CCC)NC(=O)[C@]2(C)CSC(C(C)=NO)=N2)oc(=O)c1CC#C [Compound 141] | 0.225 µM | 0.178 µM | 0.248 µM | 0.338 µM

Row | SMILES | GI50 [1] | GI50 [2] | GI50 [3] | GI50 [4]
20 | CCC[C@@H](NC(=O)[C@]1(C)CSC(/C(C)=N/OCCCNC(=O)OC(C)(C)C)=N1)c1cc(OCC2CC2)cc(=O)o1 [Compound 157] | 0.00537 µM | 0.00502 µM | 0.00537 µM | 0.00554 µM
21 | CCC[C@@H](NC(=O)[C@]1(C)CSC(C(C)=O)=N1)c1cccc(=O)o1 [Compound 127] | > 29.7 µM | 14 µM | 8.62 µM | 18.7 µM
22 | CCC[C@@H](NC(=O)[C@]1(C)CSC(/C(C)=N/N)=N1)c1cc(OC)cc(=O)o1 [Compound 99] | 0.578 µM | 0.447 µM | 0.657 µM | 0.92 µM
23 | CCC[C@@H](NC(=O)[C@]1(C)CSC(/C(C)=N/OCCCS)=N1)c1cc(OC)cc(=O)o1 [Compound 151] | 0.856 µM | 0.505 µM | 1.34 µM | 1.21 µM
24 | CCCCOc1cc([C@@H](CCC)NC(=O)[C@]2(C)CSC(/C(C)=N/O)=N2)oc(=O)c1 [Compound 71] | 0.00708 µM | 0.00756 µM | 0.0144 µM | 0.0104 µM
25 | C#CCOc1cc([C@@H](CCC)NC(=O)[C@]2(C)CSC(C(C)(OCC)OCC)=N2)oc(=O)c1 [Compound 51] | 0.344 µM | 0.215 µM | 0.323 µM | 0.366 µM
26 | CCC[C@@H](NC(=O)[C@]1(C)CSC(/C(C)=N/OC(=O)CCCCCNC(=O)OC(C)(C)C)=N1)c1cc(OCC2CC2)cc(=O)o1 [Compound 166] | 0.00473 µM | 0.00457 µM | 0.00709 µM | 0.0063 µM
27 | C=CCOc1cc([C@@H](CCC)NC(=O)[C@]2(C)CSC(/C(C)=N/O[C@H]3O[C@@H]4COC(C)(C)O[C@H]4[C@@H]4OC(C)(C)O[C@H]34)=N2)oc(=O)c1 [Compound 110] | 0.0431 µM | 0.0369 µM | 0.0785 µM | 0.0569 µM
28 | CCC[C@@H](NC(=O)[C@]1(C)CSC(/C(C)=N/OCCOCCOCCOCC)=N1)c1cc(OC)cc(=O)o1 [Compound 96] | 1.77 µM | 1.51 µM | 2.95 µM | 2.22 µM
29 | C#CCOc1cc([C@@H](CCC)NC(=O)[C@]2(C)CSC(/C(C)=N/OCCCNC(=O)OC(C)(C)C)=N2)oc(=O)c1 [Compound 155] | 0.0374 µM | 0.0409 µM | 0.0748 µM | 0.073 µM
30 | C=CCOc1cc([C@@H](CCC)NC(=O)[C@]2(C)CSC(C(C)=O)=N2)oc(=O)c1 [Compound 63] | 0.815 µM | 0.51 µM | 0.484 µM | 0.408 µM
31 | CCC[C@@H](NC(=O)[C@]1(C)COC(/C(C)=N/O)=N1)c1cc(OC)cc(=O)o1 [Compound 106] | 1.01 µM | 0.712 µM | 0.876 µM | 1.56 µM
32 | C=CCOc1cc([C@@H](CCC)NC(=O)[C@]2(C)CSC(/C(C)=N/O)=N2)oc(=O)c1 [Compound 74] | 0.00417 µM | 0.00294 µM | 0.00491 µM | 0.00319 µM
33 | CCCCCCCCCCCCCCCCCOc1cc([C@@H](CCC)NC(=O)[C@]2(C)CSC(C(C)(OCC)OCC)=N2)oc(=O)c1 [Compound 49] | 1.34 µM | 0.932 µM | 1.5 µM | 1.46 µM
34 | C=CCOc1cc([C@@H](CCC)NC(=O)[C@]2(C)CSC(C(C)N)=N2)oc(=O)c1 (stereo partly shown) [Compound 117] | 3.02 µM | 3.49 µM | 4.65 µM | 4.88 µM
35 | CCCCOc1cc([C@@H](CCC)NC(=O)[C@]2(C)CSC(/C(C)=N\O)=N2)oc(=O)c1 [Compound 71a] | 0.0165 µM | 0.017 µM | 0.0354 µM | 0.0307 µM
36 | COc1cc([C@@H](CC(C)C)NC(=O)[C@]2(C)CSC(/C(C)=N/O)=N2)oc(=O)c1 [Compound 69] | 2.2 µM | 1.59 µM | 1.62 µM | 1.52 µM
37 | CCCCCCCCCCCCCCCCCOc1cc([C@@H](CCC)NC(=O)[C@]2(C)CSC(/C(C)=N\O)=N2)oc(=O)c1 [Compound 73a] | 0.0644 µM | 0.0627 µM | 0.066 µM | 0.0594 µM

From US12215100B2, “Anticancer compounds” (Pharma Mar, S.A., priority 2018, dated 2025)
